The test system of series [1] is tail kinking and body contortion. The series can be described thus: Observation of side-effects after i.p. injection in rats. The following applies: 20 mg/kg i.p. The class given is in vivo, rat. From the text:
Referring now to FIG. 24. Biodistribution and side-effects of TAT-CBD3. […] Oxygenated blood was collected from a cardiac puncture. […] The 95% confidence limits are also indicated.

The target of the next series is T1, CaV2.2 (Rattus norvegicus, UniProt Q02294).
T1 construct: incubated with a purified synaptosome fraction enriched in Ca^2+ channels; from tissue; host or cells: P1 neonatal rat brain synaptosomes, enriched on WGA-Sepharose and heparin-agarose
The series is described as follows: Peptide spot array far-Western: CaV2.2 binding to 15-mer CRMP-2 peptides. The following applies: 15-mer peptide #96 overlaid with spinal cord lysates / rat brain synaptosomes. On the procedure:
Purification/Enrichment of Ca^2+ channels from synaptosomes. In order to prepare a rich source of CaV2.2 for the far-Western analyses (see below), synaptosomes from P1 neonatal rat brains were solubilized with digitonin and enriched by chromatography on WGA-Sepharose as described previously. Briefly, 30 PN1 neonatal rat brains were homogenized in 180 ml of 320 mM sucrose with a glass-Teflon homogenizer. After a short centrifugation (5000 rpm, 2 min), the supernatant (SN) was centrifuged (42,000 rpm, 60 min). The membranes were solubilized with 1.2% digitonin, 80 mM sodium phosphate buffer, pH 7.4 for 20 min. Unsolubilized material was removed by the centrifugation as before, and the supernatant (S3) was poured over a 40 ml WGA-Sepharose column (50 ml/h). After incubation for 1 hr at 4° C., the column was washed with 10 column volumes of 0.1% digitonin, 75 mM NaCl, 50 mM sodium phosphate, 10 mM Tris-HCl (pH 7.4) at a flow rate of 50 ml/hr. The glycoproteins bound to the WGA-Sepharose column were eluted with 100 mM N-acetyl-D-glucosamine (Sigma, St. Louis, Mo.) in the same buffer at a flow rate of 50 ml/hr. Three milliliter fractions were collected and the protein concentration of each fraction was determined by BCA protein assay kit (Thermo Fisher Scientific, Shelbyville, Ind.). […]

In series [2] the test system is formalin-induced nocifensive behavior. The series can be described thus: Formalin test. In kind it is in vivo, rat. The following applies: 30 μM intraplantar, 30 min before formalin. The method, then:
Referring now to FIG. 16. TAT-CBD3 reduces acute, inflammatory and neuropathic pain. (FIG. 16A) Time course of number of flinches following subcutaneous (dorsal surface of paw) injection of formalin (2.5%; 50 μl saline) in animals pretreated with peptides (3-100 μM; 20 μl dorsal surface of paw) 30 min before formalin (n=4-10). (FIG. 16B) The effect of peptides on number of flinches on formalin-induced phase 1 (0-10 min) and phase 2 (15-60 min). *, p<0.05 versus formalin-injected animals. (FIG. 16C) Formalin induces paw edema. Paw thickness was measured 1 h after injection of saline, formalin, and formalin+peptides (100 μM). *, p<0.05 versus saline-injected animals. (FIG. 16D) Pretreatment with TAT-CBD3 attenuates capsaicin-evoked nocifensive behavior. Vehicle (0.3% DMSO) or peptides (concentrations as indicated) in saline (40 μL) was instilled corneally and nocifensive behavior noted. […]
Behavioral analyses. […] For the eye-wipe test, vehicle, TAT control or TAT CBD3 peptides (30 μM, 40 μl) were pipetted directly into the right eye and the resulting nocifensive behavior was measured. […] This nocifensive behavior was recorded for five minutes and followed by capsaicin (3 μM; 40 μl saline) application into the pretreated eye. […]

Entries after “also recorded” stand apart in the source; their conditions may differ. Residues, ends and D or L forms follow the SMILES beside them.

T1 sequence (Q02294 whole entry): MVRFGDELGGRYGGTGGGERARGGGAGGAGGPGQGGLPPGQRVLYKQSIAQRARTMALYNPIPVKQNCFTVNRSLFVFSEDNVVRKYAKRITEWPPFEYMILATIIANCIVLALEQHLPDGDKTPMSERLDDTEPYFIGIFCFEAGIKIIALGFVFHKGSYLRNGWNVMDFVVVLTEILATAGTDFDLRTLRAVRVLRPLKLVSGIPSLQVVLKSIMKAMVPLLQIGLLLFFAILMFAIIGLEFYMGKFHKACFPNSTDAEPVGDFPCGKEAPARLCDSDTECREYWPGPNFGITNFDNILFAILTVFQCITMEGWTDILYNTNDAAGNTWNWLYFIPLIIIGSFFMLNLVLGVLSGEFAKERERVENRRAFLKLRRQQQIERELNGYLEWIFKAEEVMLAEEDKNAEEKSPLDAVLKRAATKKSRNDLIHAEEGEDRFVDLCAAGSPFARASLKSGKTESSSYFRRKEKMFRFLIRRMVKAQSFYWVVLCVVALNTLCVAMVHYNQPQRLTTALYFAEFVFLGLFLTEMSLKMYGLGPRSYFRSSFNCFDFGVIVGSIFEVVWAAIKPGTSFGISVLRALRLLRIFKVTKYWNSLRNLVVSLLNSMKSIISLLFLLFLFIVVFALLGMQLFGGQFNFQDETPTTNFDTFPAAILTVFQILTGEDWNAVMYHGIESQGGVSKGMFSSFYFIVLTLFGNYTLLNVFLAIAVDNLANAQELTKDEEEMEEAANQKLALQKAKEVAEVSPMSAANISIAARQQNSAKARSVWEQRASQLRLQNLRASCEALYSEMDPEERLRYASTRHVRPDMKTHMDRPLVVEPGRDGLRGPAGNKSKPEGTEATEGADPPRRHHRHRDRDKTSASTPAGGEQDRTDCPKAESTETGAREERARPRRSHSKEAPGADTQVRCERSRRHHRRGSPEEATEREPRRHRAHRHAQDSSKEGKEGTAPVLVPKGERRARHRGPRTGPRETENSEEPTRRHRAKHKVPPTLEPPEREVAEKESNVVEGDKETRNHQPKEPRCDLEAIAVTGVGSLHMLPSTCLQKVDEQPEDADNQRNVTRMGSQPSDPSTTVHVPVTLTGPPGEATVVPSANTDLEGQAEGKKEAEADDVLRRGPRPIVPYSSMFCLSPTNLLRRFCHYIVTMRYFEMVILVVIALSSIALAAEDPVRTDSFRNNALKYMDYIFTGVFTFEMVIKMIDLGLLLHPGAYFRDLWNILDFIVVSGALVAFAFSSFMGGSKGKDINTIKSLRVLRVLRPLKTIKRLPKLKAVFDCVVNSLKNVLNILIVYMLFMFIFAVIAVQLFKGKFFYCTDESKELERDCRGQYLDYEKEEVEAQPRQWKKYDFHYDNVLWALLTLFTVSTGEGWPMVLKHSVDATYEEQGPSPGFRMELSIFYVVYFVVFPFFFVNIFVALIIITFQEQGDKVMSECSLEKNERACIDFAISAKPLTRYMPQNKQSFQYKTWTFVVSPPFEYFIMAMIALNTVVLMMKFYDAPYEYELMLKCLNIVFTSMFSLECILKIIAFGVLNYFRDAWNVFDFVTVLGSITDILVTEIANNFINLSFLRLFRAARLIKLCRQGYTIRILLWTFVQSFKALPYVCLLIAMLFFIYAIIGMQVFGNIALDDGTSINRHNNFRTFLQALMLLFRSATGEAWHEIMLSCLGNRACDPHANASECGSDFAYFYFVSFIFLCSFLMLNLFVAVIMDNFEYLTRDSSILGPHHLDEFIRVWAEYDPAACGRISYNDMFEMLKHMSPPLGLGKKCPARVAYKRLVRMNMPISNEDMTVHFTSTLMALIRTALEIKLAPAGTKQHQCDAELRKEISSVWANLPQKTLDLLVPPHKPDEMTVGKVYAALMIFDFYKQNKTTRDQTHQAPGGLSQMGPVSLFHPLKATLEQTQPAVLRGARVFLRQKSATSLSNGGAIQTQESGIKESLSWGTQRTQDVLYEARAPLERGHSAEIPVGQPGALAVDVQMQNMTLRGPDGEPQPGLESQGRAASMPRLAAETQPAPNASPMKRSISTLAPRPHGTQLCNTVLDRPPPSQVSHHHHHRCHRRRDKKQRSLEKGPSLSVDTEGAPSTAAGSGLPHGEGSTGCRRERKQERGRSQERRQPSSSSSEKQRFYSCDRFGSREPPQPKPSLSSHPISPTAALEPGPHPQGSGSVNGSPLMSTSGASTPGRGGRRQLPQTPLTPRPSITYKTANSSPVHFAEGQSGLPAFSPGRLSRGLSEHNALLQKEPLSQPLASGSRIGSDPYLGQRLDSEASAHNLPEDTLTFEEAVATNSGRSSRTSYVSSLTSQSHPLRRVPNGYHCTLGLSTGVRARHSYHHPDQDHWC

`CC(C)C[C@H](NC(=O)CNC(=O)[C@H](CCCNC(=N)N)NC(=O)[C@@H]1CCCN1C(=O)[C@@H](NC(=O)CNC(=O)[C@H](CCCNC(=N)N)NC(=O)[C@H](CC(C)C)NC(=O)[C@H](CCC(=O)O)NC(=O)[C@H](C)NC(=O)[C@H](CC(C)C)NC(=O)[C@H](CCCNC(=N)N)NC(=O)[C@H](CO)NC(=O)[C@H](CCCNC(=N)N)NC(=O)[C@H](C)NC(=O)[C@H](CCCNC(=N)N)NC(=O)[C@H](CCCNC(=N)N)NC(=O)[C@H](CCCNC(=N)N)NC(=O)[C@H](CCC(N)=O)NC(=O)[C@H](CCCNC(=N)N)NC(=O)[C@H](CCCNC(=N)N)NC(=O)[C@H](CCCCN)NC(=O)[C@H](CCCCN)NC(=O)[C@H](CCCNC(=N)N)NC(=O)CNC(=O)[C@@H](N)Cc1ccc(O)cc1)C(C)C)C(=O)O` [TAT-CBD3] (H-YGRKKRRQRRRARSRLAELRGVPRGL-OH; N-terminus and C-terminus assumed): in series [1], the “duration of contortion and tail kinking” value is reported as “dissipated fifteen seconds following their first appearance”; the “onset of contortion and tail kinking after injection” value is given as “about 15 seconds”; the side-effects observed entry is “whole-body lordosis-like contortion (black arrow) and tail kinking; also recorded: Transient contortions were observed”. Further, the “number of episodes of contortion and tail kinking” value in series [1] (60 min observation) is “Only a single episode of contortion and tail kinking movement”.

In the case of ARSRLAELRGVPRGL (CBD3), the “binding to CaV2.2” value in the series with CaV2.2 is reported as “bound to the CaV2.2”. Also, the “formalin-induced flinching, phase 1 and phase 2” value in series [2] is recorded as “displayed blunted nociceptive behaviors in both phases”.

For the origin of these results see US9018173B2, “Materials and methods for suppressing inflammatory and neuropathic pain” (Indiana University Research and Technology Corp., priority 2010, dated 2015).
